Assay [1] has as its target T1, MtmOIV (Streptomyces argillaceus, UniProt Q194P4). In words: NADPH oxidation, fluorescence. As to conditions: 2 mM premithramycin B, 0.1 mM FAD, O2; 100 mM Tris-HCl pH 8.25, 30 °C. Format: biochemical.
Assay [2] concerns the target MtmOIV (Streptomyces argillaceus, UniProt Q194P4, R173A, form not given). The assay is described as follows: NADPH oxidation, fluorescence. Format: biochemical. As to conditions: 2 mM premithramycin B, 0.1 mM FAD, O2; 100 mM Tris-HCl pH 8.25, 30 °C.
In assay [3] the target is T1, MtmOIV. In words: X-ray crystal structure, […] Å. The class given is binding. To be noted: non-covalently bound.

As a reminder, the Km is the concentration of substrate that gives half-maximal velocity. Consider `NC(=O)C1=CN([C@@H]2O[C@H](COP(=O)(O)OP(=O)(O)OC[C@H]3O[C@@H](n4cnc5c(N)ncnc54)[C@H](OP(=O)(O)O)[C@@H]3O)[C@@H](O)[C@H]2O)C=CC1` [NADPH], for which the figures for the Michaelis-Menten constant (Km) at MtmOIV [1] and on MtmOIV [2] were 372 ± 68 µM and 528 ± 63 µM, respectively.
Consider `Cc1cc2nc3c(=O)[nH]c(=O)nc-3n(C[C@H](O)[C@H](O)[C@H](O)COP(=O)(O)OP(=O)(O)OC[C@H]3O[C@@H](n4cnc5c(N)ncnc54)[C@H](O)[C@@H]3O)c2cc1C` [FAD], for which the “X-ray crystal structure, 2.0 Å” value on MtmOIV [3] is reported as “a single non-covalently bound FAD cofactor”.
